Experimental data taken from US10653637B2, “Preventives or remedies for hepatopathy” (priority 2003, dated 2020).

Tests used:
[1] = tested on: PCNA mRNA; experiment: Expression of hepatocyte proliferation marker PCNA mRNA in liver (real time RT-PCR); type: in vivo, rat; conditions: ghrelin 30 μg/kg s.c., DMN-induced hepatic fibrosis rats
Procedure: (§1) Amount of expression of hepatocyte proliferation marker (PCNA) and HGF
(§2) Amounts of expression of a PCNA mRNA and a HGF mRNA in the liver after subcutaneous injection of a physiological saline and ghrelin to DMN-induced hepatic fibrosis rats were measured by the real time RT-PCR method.

[2] = tested on: HGF mRNA; experiment: Expression of HGF mRNA in liver (real time RT-PCR); type: in vivo, rat; conditions: ghrelin 30 μg/kg s.c., DMN-induced hepatic fibrosis rats
Procedure: as §1, §2

[3] = tested on: rat hepatocytes; experiment: Rat hepatocyte proliferation promoting activity (ki-67 immunostaining) after one week of repeated administration; type: in vivo; conditions: ghrelin 10 μg/kg i.v. two times a day for 7 days; for Positive ratio (ki-67): % printed in b244 only; for Number of ki-67 positive cells: among 231±27 hepatocytes, eight places of liver section
Procedure: Rat hepatocyte proliferation promoting activity by repeated administration of ghrelin for one week
10 μg/kg of ghrelin was repeatedly administered intravenously to Wistar male rats two times a day for 7 days and, on the next day from administration completion, liver was isolated and fixed. Then, ki-67 protein as a peptide which is expressed at cell growth phase was immunostained.
For quantatively assessing hepatocyte proliferation activity by ghrelin, eight places of the liver section of one case of the physiological saline-administered group and one case of the ghrelin-administered group were arbitrarily selected, and among about 200 hepatocytes in a visual field, the number of ki-67 positive cells was counted under a microscope.

[4] = tested on: DMN-induced hepatic fibrosis rat; experiment: Ghrelin administration in DMN-induced hepatic fibrosis/liver cirrhosis model (organ weight, hematology, serum biochemistry); type: in vivo; conditions: 35 days, DMN treatment
Procedure: Ghrelin administration experiment using DMN-induced hepatic fibrosis/liver cirrhosis model (Estimation of various parameters)
According to the same manner as that of Example 1 except that administration days were changed from 8 weeks to 35 days, an experiment was performed, and the effect of rat ghrelin on hepatopathy was estimated from a viewpoint of organ weight, hematology and serum biochemistry. A DMN-untreated group (normal rat) was used as a control group.

[5] = tested on: Wistar male rats; experiment: Organ blood flow (microspheres); type: in vivo, rat; conditions: ghrelin 30 μg/kg s.c., under anesthesia; for Hepatic blood flow / Spleen blood flow / Stomach blood flow: mean ± standard deviation, 6 rats per group
[6] = tested on: DMN-induced hepatic fibrosis/liver cirrhosis model; experiment: Ghrelin administration in DMN-induced hepatic fibrosis/liver cirrhosis model (survival rate); type: in vivo, rat; conditions: DMN-treated rats
Procedure: Ghrelin administration experiment using dimethylnitrosoamine (DMN)-induced hepatic fibrosis/liver cirrhosis model (Estimation of survival rate).
A hepatic fibrosis/liver cirrhosis rat model to be induced by DMN was prepared, rat ghrelin was subcutaneously injected, and the effect on hepatopathy was investigated.
Upon use, a dilution in which DMN (manufactured by Wako Pure Chemical Industries, Ltd.) was diluted with a physiological saline solution (manufactured by Otsuka Pharmaceutical Co., Ltd., physiological saline solution described in the Japanese Pharmacopoeia) to 1% concentration (v/v) was prepared, and this was intraperitoneafly administered to male rats (4 weeks old) so that DMN became 1 mL/kg. Administration was performed once a day, for consecutive three days in one week, and administration was repeated for 6 weeks, and the first time administration date was regarded as day 1.
Rat ghrelin (purchased from Peptide Institute Inc., Japan) was added to 5 weight % mannitol as a solvent to a concentration of 1 mg/mL, this was dispensed every necessary amount per one time, and freezing-stored at about −80° C. until its use. Upon use, this was thawed, and diluted with a physiological saline solution to a concentration of 30 μg/mL and 3 μg/mL to obtain a dosing solution. […]

[7] = tested on: Wistar male rats after 70% hepatectomy; experiment: Liver weight after hepatectomy under 40% restricted diet; type: in vivo, rat; conditions: ghrelin 30 μg/kg s.c. two times a day for 3 days after 70% hepatectomy, four days after
Procedure: Liver Weight after Hepatectomy
Seventy % of liver was excised under anesthesia in Wistar male rats, and 30 μg/kg of ghrelin or a physiological saline was subcutaneously injected two times a day for 3 days under 40% restricted diet. Four days after, rat liver was isolated, and the liver weight was measured.

[8] = ghrelin 3 μg/kg s.c. once a day
[9] = ghrelin 3 μg/kg s.c. once a day, mean±S.E.
[10] = ghrelin 30 μg/kg s.c. once a day
[11] = ghrelin 30 μg/kg s.c. once a day, listed as ghrelin
[12] = ghrelin 30 μg/kg s.c. once a day, mean±S.E.
[13] = ghrelin 30 μg/kg s.c. once a day, mean±S.E., listed as ghrelin
[14] = ghrelin administration, dose not given

## Ghrelin
[1]
  PCNA mRNA (amount of expression in the liver): 2.083 ± 0.533
[1]; listed as ghrelin
  PCNA mRNA (amount of expression in the liver): tended to be increased
[2]
  HGF mRNA (amount of expression in the liver): 2.025 ± 0.595
[2]; listed as ghrelin
  HGF mRNA (amount of expression in the liver): increased
[3]
  Positive ratio (ki-67): 9.28 ± 3.26%
  Number of ki-67 positive cells: 20.9 ± 6.1
[3]; listed as ghrelin
  Positive ratio (ki-67): 9.28±3.26%
  Number of ki-67 positive cells: 20.9±6.1
[4]; [8]
  Ascites (appearance frequency): 2/7
  Erythrocyte: 6.4 ± 0.2 ×10^6/μL
  Fibrinogen: 166 ± 9.5 mg/dL
  Hepaplastin time: 86.2 ± 11.8 s
  Leukocyte: 7.3 ± 0.6 ×10^3/μL
  Platelet: 52.3 ± 6.2 ×10^4/μL
  Spleen weight increase as compared with normal rats: more than 2 fold
[4]; [9]
  Δ liver weight: 13.6 ± 0.7 g
  Δ spleen weight: 2.20 ± 0.08 g
[4]; ghrelin 3 μg/kg s.c. once a day, mean±S.E., listed as ghrelin
  Δ liver weight (g): reduced as compared with a normal rat
[4]; [10]
  Ascites (appearance frequency): 0/7
  Erythrocyte: 6.8 ± 0.3 ×10^6/μL
  Fibrinogen: 207 ± 16.3 mg/dL
  Hepaplastin time: 77.8 ± 3.2 s
  Leukocyte: 6.6 ± 1.2 ×10^3/μL
  Platelet: 89.6 ± 5.5 ×10^4/μL
[4]; [11]
  Ascites (appearance frequency): ascites did not appear
  Erythrocyte: returned to a normal level
  Leukocyte: returned to a normal level
  Platelet: the number of platelets was recovered
[4]; [12]
  Δ liver weight: 14.3 ± 0.6 g
  Δ spleen weight: 1.83 ± 0.12 g
[4]; [13]
  Δ liver weight (g): reduction in the liver weight was suppressed
  Δ spleen weight (g): increase was slightly suppressed
[4]; [14]
  hepaplastin time (in words): tended to be normalized
  serum fibrinogen (in words): a tendency that fibrinogen was recovered to normalization
[5]
  Hepatic blood flow: 1.049 ± 0.414 mL/min/kg
  Spleen blood flow: 1.099 ± 0.264 mL/min/kg
  Stomach blood flow: 1.064 ± 0.486 mL/min/kg
[5]; listed as ghrelin
  Hepatic blood flow: increased
  Spleen blood flow: increased
  Stomach blood flow: increased
[5]; versus physiological saline
  blood flow in jejunum: a tendency of blood flow increase
[6]; ghrelin 3 μg/kg s.c. once a day from day 1 over 8 weeks
  survived at 56 days: 75%
[6]; ghrelin 30 μg/kg s.c. once a day from day 1 over 8 weeks
  survival at 56 days: all cases survived
[7]
  Liver weight: 2.464 ± 0.133
[7]; listed as ghrelin
  Liver weight: the liver weight was increased
